PubChem BioAssay (NCI)
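Briefly, cells in 96-well plates were exposed to five compound concentrations for 48 h, and endpoints were estimated by linear interpolation. The concentration for full growth arrest is given as TGI.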

Assays:
Experiment in all cases: growth of human tumour cells (NCI), 48 h
[1] = test system: 786-0 renal
[2] = test system: A498 renal
[3] = test system: A549 NSCLC
[4] = test system: ACHN renal
[5] = test system: CCRF-CEM leukemia
[6] = test system: COLO 205 colon
[7] = test system: DLD-1 colon
[8] = test system: DMS 114 small cell lung
[9] = test system: DMS 273 small cell lung
[10] = test system: EKVX NSCLC
[11] = test system: HCT-116 colon
[12] = test system: HCT-15 colon
[13] = test system: HL-60(TB) leukemia
[14] = test system: HOP-18 NSCLC
[15] = test system: HOP-62 NSCLC
[16] = test system: HOP-92 NSCLC
[17] = test system: HT29 colon
[18] = test system: IGROV1 ovarian
[19] = test system: K-562 leukemia
[20] = test system: KM12 colon
[21] = test system: KM20L2 colon
[22] = test system: LOX IMVI melanoma
[23] = test system: LXFL 529 NSCLC
[24] = test system: M14 melanoma
[25] = test system: M19-MEL melanoma
[26] = test system: MOLT-4 leukemia
[27] = test system: NCI-H226 lung
[28] = test system: NCI-H23 lung
[29] = test system: NCI-H460 lung
[30] = test system: NCI-H522 lung
[31] = test system: OVCAR-4 ovarian
[32] = test system: OVCAR-5 ovarian
[33] = test system: OVCAR-8 ovarian
[34] = test system: RPMI-8226 leukemia
[35] = test system: SF-268 CNS
[36] = test system: SF-295 CNS
[37] = test system: SF-539 CNS
[38] = test system: SK-MEL-28 melanoma
[39] = test system: SK-MEL-5 melanoma
[40] = test system: SN12C renal
[41] = test system: SNB-19 CNS
[42] = test system: SNB-75 CNS
[43] = test system: SNB-78 CNS
[44] = test system: SR leukemia
[45] = test system: SW-620 colon
[46] = test system: U251 CNS
[47] = test system: UACC-257 melanoma
[48] = test system: UACC-62 melanoma
[49] = test system: BT-549 breast
[50] = test system: CAKI-1 renal
[51] = test system: DU-145 prostate
[52] = test system: HCC-2998 colon
[53] = test system: HS 578T breast
[54] = test system: MALME-3M melanoma
[55] = test system: MCF7 breast
[56] = test system: MDA-MB-231 breast
[57] = test system: MDA-MB-435
[58] = test system: MDA-N
[59] = test system: NCI/ADR-RES ovarian
[60] = test system: OVCAR-3 ovarian
[61] = test system: PC-3 prostate
[62] = test system: RXF 393 renal
[63] = test system: SK-MEL-2 melanoma
[64] = test system: SK-OV-3 ovarian
[65] = test system: T-47D breast
[66] = test system: TK-10 renal
[67] = test system: UO-31 renal

`COc1ccc(/C=C/C(=O)c2cc(C(=O)O)c(OC)cc2OC)cc1OC` gave a TGI [1] greater than 100 µM, a TGI [2] greater than 100 µM and a TGI [3] greater than 100 µM. The TGI [4] was greater than 100 µM, the TGI [5] was greater than 100 µM and the TGI [6] was greater than 100 µM. For the same compound, the TGI [7] was greater than 100 µM, the TGI [8] was greater than 100 µM and the TGI [9] was greater than 100 µM. It also gave a TGI [10] greater than 100 µM, a TGI [11] greater than 100 µM and a TGI [12] greater than 100 µM. It also gave a TGI [13] greater than 100 µM, a TGI [14] greater than 100 µM and a TGI [15] greater than 100 µM. The TGI [16] was greater than 100 µM, the TGI [17] was greater than 100 µM and the TGI [18] was greater than 100 µM. It also gave a TGI [19] greater than 100 µM, a TGI [20] greater than 100 µM and a TGI [21] greater than 100 µM. The TGI [22] was greater than 100 µM, the TGI [23] was greater than 100 µM and the TGI [24] was greater than 100 µM. The TGI [25] was greater than 100 µM, the TGI [26] was greater than 100 µM and the TGI [27] was greater than 100 µM. The TGI [28] was greater than 100 µM, the TGI [29] was greater than 100 µM and the TGI [30] was greater than 100 µM. It also gave a TGI [31] greater than 100 µM, a TGI [32] greater than 100 µM and a TGI [33] greater than 100 µM. It also gave a TGI [34] greater than 100 µM, a TGI [35] greater than 100 µM and a TGI [36] greater than 100 µM. The TGI [37] was greater than 100 µM, the TGI [38] was greater than 100 µM and the TGI [39] was greater than 100 µM. It also gave a TGI [40] greater than 100 µM, a TGI [41] greater than 100 µM and a TGI [42] greater than 100 µM. The TGI [43] was greater than 100 µM, the TGI [44] was greater than 100 µM and the TGI [45] was greater than 100 µM. For the same compound, the TGI [46] was greater than 100 µM, the TGI [47] was greater than 100 µM and the TGI [48] was greater than 100 µM.

`CCCCCCCCCCCCCCCC(=O)Nc1ccn(C2OC(CO)C(O)C2O)c(=O)n1` (configuration not stated) showed a TGI [1] greater than 100 µM, a TGI [2] greater than 100 µM and a TGI [3] greater than 100 µM. The TGI [4] was 99.4 µM, the TGI [49] was greater than 100 µM and the TGI [50] was greater than 100 µM. For the same compound, the TGI [5] was 7.28 µM, the TGI [6] was greater than 100 µM and the TGI [7] was greater than 100 µM. For the same compound, the TGI [8] was greater than 100 µM, the TGI [9] was greater than 100 µM and the TGI [51] was greater than 50.3 µM. It also gave a TGI [10] greater than 100 µM, a TGI [52] greater than 100 µM and a TGI [11] greater than 100 µM. For the same compound, the TGI [12] was greater than 100 µM, the TGI [13] was 43.3 µM and the TGI [14] was greater than 100 µM. The TGI [15] was greater than 88 µM, the TGI [16] was 85.5 µM and the TGI [53] was greater than 91.4 µM. The TGI [17] was greater than 100 µM, the TGI [18] was greater than 100 µM and the TGI [19] was greater than 100 µM. For the same compound, the TGI [20] was greater than 100 µM, the TGI [21] was greater than 100 µM and the TGI [22] was 38 µM. The TGI [23] was greater than 100 µM, the TGI [24] was 32.5 µM and the TGI [25] was greater than 100 µM. The TGI [54] was greater than 100 µM, the TGI [55] was greater than 100 µM and the TGI [56] was greater than 100 µM. For the same compound, the TGI [57] was greater than 100 µM, the TGI [58] was greater than 100 µM and the TGI [26] was 17.3 µM. The TGI [27] was greater than 100 µM, the TGI [28] was 81.5 µM and the TGI [29] was greater than 65.6 µM. It also gave a TGI [30] greater than 79.7 µM, a TGI [59] greater than 100 µM and a TGI [60] greater than 100 µM. For the same compound, the TGI [31] was greater than 100 µM, the TGI [32] was greater than 100 µM and the TGI [33] was greater than 100 µM. It also gave a TGI [61] greater than 100 µM, a TGI [34] greater than 100 µM and a TGI [62] greater than 97.2 µM. It also gave a TGI [35] greater than 100 µM, a TGI [36] greater than 100 µM and a TGI [37] greater than 100 µM. For the same compound, the TGI [63] was greater than 100 µM, the TGI [38] was greater than 100 µM and the TGI [39] was greater than 100 µM. For the same compound, the TGI [64] was greater than 100 µM, the TGI [40] was greater than 100 µM and the TGI [41] was greater than 80.8 µM. The TGI [42] was greater than 90.4 µM, the TGI [43] was greater than 100 µM and the TGI [44] was 62.7 µM. The TGI [45] was greater than 100 µM, the TGI [65] was greater than 100 µM and the TGI [66] was greater than 100 µM. For the same compound, the TGI [46] was greater than 100 µM, the TGI [47] was greater than 100 µM and the TGI [48] was greater than 100 µM. The TGI [67] was greater than 43.9 µM.

Work on `CC(=O)NC(CCCN(Cc1ccccc1)C(=O)NCCCl)C(=O)NCc1ccccc1` (configuration not stated) yielded a TGI [1] greater than 100 µM, a TGI [2] greater than 100 µM and a TGI [3] greater than 100 µM. The TGI [4] was greater than 100 µM, the TGI [50] was greater than 100 µM and the TGI [5] was greater than 100 µM. It also gave a TGI [6] greater than 100 µM, a TGI [7] greater than 100 µM and a TGI [8] greater than 100 µM. The TGI [9] was greater than 100 µM, the TGI [10] was greater than 100 µM and the TGI [52] was greater than 100 µM. The TGI [11] was greater than 100 µM, the TGI [12] was greater than 100 µM and the TGI [13] was greater than 100 µM. The TGI [14] was greater than 100 µM, the TGI [15] was greater than 100 µM and the TGI [16] was greater than 100 µM. It also gave a TGI [17] greater than 100 µM, a TGI [18] greater than 100 µM and a TGI [19] greater than 100 µM. It also gave a TGI [20] greater than 100 µM, a TGI [21] greater than 100 µM and a TGI [22] greater than 100 µM. For the same compound, the TGI [23] was greater than 100 µM, the TGI [24] was greater than 100 µM and the TGI [25] was greater than 100 µM. For the same compound, the TGI [54] was greater than 100 µM, the TGI [26] was greater than 100 µM and the TGI [27] was greater than 100 µM. For the same compound, the TGI [28] was greater than 100 µM, the TGI [29] was greater than 100 µM and the TGI [30] was greater than 100 µM. The TGI [60] was greater than 100 µM, the TGI [31] was greater than 100 µM and the TGI [32] was greater than 100 µM. For the same compound, the TGI [33] was greater than 100 µM, the TGI [34] was greater than 100 µM and the TGI [62] was greater than 100 µM. For the same compound, the TGI [35] was greater than 100 µM, the TGI [36] was greater than 100 µM and the TGI [37] was greater than 100 µM. For the same compound, the TGI [63] was greater than 100 µM, the TGI [38] was greater than 100 µM and the TGI [39] was greater than 100 µM. It also gave a TGI [64] greater than 100 µM, a TGI [40] greater than 100 µM and a TGI [41] greater than 100 µM. It also gave a TGI [42] greater than 100 µM, a TGI [43] greater than 100 µM and a TGI [44] greater than 100 µM. It also gave a TGI [45] greater than 100 µM, a TGI [66] greater than 100 µM and a TGI [46] greater than 100 µM. The TGI [47] was greater than 100 µM, the TGI [48] was greater than 100 µM and the TGI [67] was greater than 100 µM.
